# In paper PMC12518996 (Frontiers in Pharmacology, 2025):
# Columns and labels:
# Assay type in all cases: in vitro ADME
# CYP1B1 = molecular target: T1, CYP1B1 (Rattus norvegicus, UniProt Q64678); assay: Metabolite formation by recombinant rat CYP1B1; details: trazodone 4 μM; NADPH; 37 °C, 40 min
# T1 sequence (Q64678 1-543): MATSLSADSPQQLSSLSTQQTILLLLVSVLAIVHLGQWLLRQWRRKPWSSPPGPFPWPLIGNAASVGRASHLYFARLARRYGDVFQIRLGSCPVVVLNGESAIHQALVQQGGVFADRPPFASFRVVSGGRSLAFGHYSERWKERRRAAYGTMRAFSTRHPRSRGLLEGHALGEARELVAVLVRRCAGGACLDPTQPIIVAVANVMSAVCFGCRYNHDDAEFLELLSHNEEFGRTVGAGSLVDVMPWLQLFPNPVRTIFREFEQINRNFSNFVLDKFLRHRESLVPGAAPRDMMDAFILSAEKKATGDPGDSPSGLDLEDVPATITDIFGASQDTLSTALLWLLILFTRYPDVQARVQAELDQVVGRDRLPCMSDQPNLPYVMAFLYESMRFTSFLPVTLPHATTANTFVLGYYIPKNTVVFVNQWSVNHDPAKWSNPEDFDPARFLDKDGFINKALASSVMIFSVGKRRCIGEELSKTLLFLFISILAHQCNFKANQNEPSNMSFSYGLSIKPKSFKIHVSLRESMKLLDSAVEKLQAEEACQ
# Protocol: (§1) To confirm the role of individual CYP isoforms in metabolizing trazodone, recombinant human and rat CYP enzymes were employed in separate incubations. […] Each reaction was terminated with acetonitrile, centrifuged, and the supernatant was analyzed by identical UHPLC-Orbitrap setup outlined in §2.2, allowing direct comparison of metabolite spectra across all in-vitro systems. […] This procedure helped confirm the contributions of individual isoforms to specific biotransformation reactions.
# CYP3A4 = CYP3A4 (Homo sapiens, UniProt P08684); assay: Metabolite formation by recombinant human CYP3A4; details: trazodone 4 μM; NADPH; 37 °C, 40 min
# Protocol: Each reaction was terminated with acetonitrile, centrifuged, and the supernatant was analyzed by identical UHPLC-Orbitrap setup outlined in §2.2, allowing direct comparison of metabolite spectra across all in-vitro systems.
# CYP2D4 = molecular target: T2, CYP2D4 (Rattus norvegicus, UniProt Q64680); assay: Metabolite formation by recombinant rat CYP2D4; details: trazodone 4 μM; NADPH; 37 °C, 40 min
# T2 sequence (Q64680 1-500): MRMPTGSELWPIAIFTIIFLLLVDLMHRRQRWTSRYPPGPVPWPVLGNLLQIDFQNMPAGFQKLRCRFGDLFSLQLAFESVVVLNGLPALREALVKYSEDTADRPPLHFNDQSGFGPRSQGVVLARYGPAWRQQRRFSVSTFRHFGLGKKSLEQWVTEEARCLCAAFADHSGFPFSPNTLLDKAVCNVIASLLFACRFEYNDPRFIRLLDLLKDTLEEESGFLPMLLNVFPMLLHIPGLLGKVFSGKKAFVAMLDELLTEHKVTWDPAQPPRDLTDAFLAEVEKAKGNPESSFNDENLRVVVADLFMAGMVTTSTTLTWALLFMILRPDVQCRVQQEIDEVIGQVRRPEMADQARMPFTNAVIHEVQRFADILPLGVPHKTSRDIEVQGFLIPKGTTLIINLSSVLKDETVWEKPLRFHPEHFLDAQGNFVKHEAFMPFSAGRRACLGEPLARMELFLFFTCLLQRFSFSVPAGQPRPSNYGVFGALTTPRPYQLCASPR
# Protocol: as §1
# FMO1 = molecular target: T3, FMO1 (Homo sapiens, UniProt Q01740); assay: Metabolite formation by recombinant human FMO1; details: trazodone 4 μM; 37 °C, 40 min
# T3 sequence (Q01740 1-532): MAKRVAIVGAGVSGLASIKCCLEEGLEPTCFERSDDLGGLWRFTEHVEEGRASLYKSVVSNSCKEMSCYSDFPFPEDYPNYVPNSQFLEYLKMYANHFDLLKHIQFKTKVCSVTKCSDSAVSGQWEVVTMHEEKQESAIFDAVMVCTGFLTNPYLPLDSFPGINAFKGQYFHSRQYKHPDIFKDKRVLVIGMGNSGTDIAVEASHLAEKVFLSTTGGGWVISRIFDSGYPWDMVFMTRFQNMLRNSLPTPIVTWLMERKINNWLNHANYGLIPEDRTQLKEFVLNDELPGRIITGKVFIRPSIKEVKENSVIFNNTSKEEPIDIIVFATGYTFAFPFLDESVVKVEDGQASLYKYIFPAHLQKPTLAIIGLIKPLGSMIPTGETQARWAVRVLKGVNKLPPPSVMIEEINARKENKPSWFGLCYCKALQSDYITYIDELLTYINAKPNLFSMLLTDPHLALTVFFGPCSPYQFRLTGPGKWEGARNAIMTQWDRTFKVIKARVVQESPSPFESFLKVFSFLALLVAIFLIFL
# CYP2A6 = molecular target: T4, CYP2A6 (Homo sapiens, UniProt P11509); assay: Metabolite formation by recombinant human CYP2A6; details: trazodone 4 μM; NADPH; 37 °C, 40 min
# T4 sequence (P11509 1-494): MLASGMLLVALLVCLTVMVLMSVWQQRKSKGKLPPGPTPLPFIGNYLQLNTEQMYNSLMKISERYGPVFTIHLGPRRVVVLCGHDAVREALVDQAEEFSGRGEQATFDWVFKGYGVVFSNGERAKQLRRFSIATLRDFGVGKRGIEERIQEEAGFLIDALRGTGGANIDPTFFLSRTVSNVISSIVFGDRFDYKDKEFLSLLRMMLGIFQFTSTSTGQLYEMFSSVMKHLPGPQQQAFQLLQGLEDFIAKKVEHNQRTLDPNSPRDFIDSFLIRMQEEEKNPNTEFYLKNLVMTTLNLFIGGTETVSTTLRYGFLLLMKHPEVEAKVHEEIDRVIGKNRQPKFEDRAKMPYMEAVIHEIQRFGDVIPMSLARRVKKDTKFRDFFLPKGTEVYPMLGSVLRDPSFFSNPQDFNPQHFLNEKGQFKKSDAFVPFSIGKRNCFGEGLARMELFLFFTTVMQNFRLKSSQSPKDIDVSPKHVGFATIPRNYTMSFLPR
# Protocol: as §1
# CYP2C19 = CYP2C19 (Homo sapiens, UniProt P33261); assay: Metabolite formation by recombinant human CYP2C19; details: trazodone 4 μM; NADPH; 37 °C, 40 min
# Protocol: as §1
# Chain of CYP3A4 (P08684 whole entry): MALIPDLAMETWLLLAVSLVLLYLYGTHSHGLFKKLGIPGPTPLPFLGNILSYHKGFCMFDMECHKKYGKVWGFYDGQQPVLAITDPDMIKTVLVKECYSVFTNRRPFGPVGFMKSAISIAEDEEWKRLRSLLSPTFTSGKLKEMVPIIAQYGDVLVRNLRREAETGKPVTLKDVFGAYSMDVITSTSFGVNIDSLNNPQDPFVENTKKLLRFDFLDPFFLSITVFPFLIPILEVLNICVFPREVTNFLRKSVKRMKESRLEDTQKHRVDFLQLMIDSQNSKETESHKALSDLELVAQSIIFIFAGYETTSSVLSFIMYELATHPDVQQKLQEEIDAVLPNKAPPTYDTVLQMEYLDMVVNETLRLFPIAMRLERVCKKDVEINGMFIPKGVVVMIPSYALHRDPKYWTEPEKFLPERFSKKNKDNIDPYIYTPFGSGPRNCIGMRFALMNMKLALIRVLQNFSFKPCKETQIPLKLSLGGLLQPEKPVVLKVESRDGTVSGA
# Chain of CYP2C19 (P33261 whole entry): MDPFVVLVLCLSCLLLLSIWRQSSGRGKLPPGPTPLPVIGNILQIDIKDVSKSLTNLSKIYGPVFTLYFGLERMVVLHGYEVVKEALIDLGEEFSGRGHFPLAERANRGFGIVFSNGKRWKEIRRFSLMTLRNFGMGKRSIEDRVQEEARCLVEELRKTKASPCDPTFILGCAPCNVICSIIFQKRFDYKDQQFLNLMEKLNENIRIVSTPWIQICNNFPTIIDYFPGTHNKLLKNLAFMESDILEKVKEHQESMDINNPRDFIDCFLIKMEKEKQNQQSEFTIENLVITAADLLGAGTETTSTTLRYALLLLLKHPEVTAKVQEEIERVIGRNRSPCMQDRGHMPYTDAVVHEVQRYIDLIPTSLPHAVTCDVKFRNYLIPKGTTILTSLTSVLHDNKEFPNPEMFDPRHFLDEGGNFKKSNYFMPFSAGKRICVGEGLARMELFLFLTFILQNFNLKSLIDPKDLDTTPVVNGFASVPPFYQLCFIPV
compound,measurement,setting,value
"Clc1cccc(N2CCNCC2)c1 [mCPP, m-chlorophenylpiperazine]",Formation of trazodone phase I metabolite by recombinant rat CYP1B1 (as LC/MS peak areas),CYP1B1,724
same,Formation of trazodone phase I metabolite by recombinant human CYP3A4 (as LC/MS peak areas),CYP3A4,32991
same,Formation of trazodone phase I metabolite by recombinant rat CYP2D4 (as LC/MS peak areas),CYP2D4,3166
same,Formation of trazodone phase I metabolite by recombinant human FMO1 (as LC/MS peak areas),FMO1,6
same,Formation of trazodone phase I metabolite by recombinant human CYP2A6 (as LC/MS peak areas),CYP2A6,8
same,Formation of trazodone phase I metabolite by recombinant human CYP2C19 (as LC/MS peak areas),CYP2C19,189
O=c1n(CCCN2CCNCC2)nc2ccccn12 [Metabolite M15],Formation of trazodone phase I metabolite by recombinant rat CYP1B1 (as LC/MS peak areas),CYP1B1,22
same,Formation of trazodone phase I metabolite by recombinant human CYP3A4 (as LC/MS peak areas),CYP3A4,6716
same,Formation of trazodone phase I metabolite by recombinant rat CYP2D4 (as LC/MS peak areas),CYP2D4,184
same,Formation of trazodone phase I metabolite by recombinant human FMO1 (as LC/MS peak areas),FMO1,0
same,Formation of trazodone phase I metabolite by recombinant human CYP2A6 (as LC/MS peak areas),CYP2A6,0
same,Formation of trazodone phase I metabolite by recombinant human CYP2C19 (as LC/MS peak areas),CYP2C19,180
O=c1n(CCCO)nc2ccccn12 [Metabolite M20],Formation of trazodone phase I metabolite by recombinant rat CYP1B1 (as LC/MS peak areas),CYP1B1,94
same,Formation of trazodone phase I metabolite by recombinant human CYP3A4 (as LC/MS peak areas),CYP3A4,236
same,Formation of trazodone phase I metabolite by recombinant rat CYP2D4 (as LC/MS peak areas),CYP2D4,538
same,Formation of trazodone phase I metabolite by recombinant human FMO1 (as LC/MS peak areas),FMO1,0
same,Formation of trazodone phase I metabolite by recombinant human CYP2A6 (as LC/MS peak areas),CYP2A6,0
same,Formation of trazodone phase I metabolite by recombinant human CYP2C19 (as LC/MS peak areas),CYP2C19,0
